≈ marks a conversion by molar mass, not a printed value. Structures can show the parent of a compound that is named as a salt.
Tests used:
[1] = Instantaneous solubility of the compounds of formula (I) in aqueous media; format: physicochemical; conditions: for Solubility, dissolution medium Acetic buffer pH 7.5 / Solubility, dissolution medium Phosphate buffer pH 7.5 / Solubility, dissolution medium Water / Solubility, dissolution medium Water + 10% ethanol: instantaneous solubility, room temperature
Protocol: (§1) Furthermore, the hydrophobic character of the compounds of formula (I) is very strongly pronounced. […] These compounds are soluble in alcohols and glycols and more particularly in polyethylene glycols (PEG).
The solubilities of the compounds of formula (I) are measured in different aqueous media. The instantaneous solubility is evaluated at room temperature by quantitative analysis. The results, expressed in μg per ml, are collated in Table 1 below: […]

[2] = Kinetics of dissolution in a gastric medium; format: physicochemical; conditions: 40 mg in one liter, phosphate-citrate buffer pH 3, 37° C., no surfactant
Protocol: The kinetics of dissolution of different formulations in a gastric medium were studied at 37° C. in a phosphate-citrate buffer of pH 3 for 30 minutes. […]
6 tests were carried out for each formulation and the amount of compound A dissolved in the medium was measured every 5 minutes.
Table 7 indicates the mean value of the percentage of compound A dissolved and the standard deviation relative to this value for the different formulations described in Table 6.

Caco-2 cells = assay: Intestinal transepithelial passage across Caco-2 monolayer; format: in vitro ADME
Protocol: (§2) The permeability of the epithelium of the compounds is evaluated using the Caco-2 cell line, which has the characteristic of undergoing differentiation in vitro to form an epithelial monolayer (Crit. Rev. Ther. Drug Carrier System, 1991, 8 (4), 105-330). In this model the permeability of compound A dissolved in dimethyl sulfoxide (DMSO) is high, showing that it has a good ability to be absorbed by the intestine when it is in solution.
(§3) Caco-2 cells are cultured onto microporous polycarbonate filters covered with collagen. The cellular monolayer formed on the filter then makes it possible to separate an apical compartment (imitating the intestinal lumen) from a basal compartment (imitating the blood circulation).
(§4) The composition containing the compound to be studied is placed on the apical side and the passage of this compound, dispersed or solubilized in Hank's medium, through this cellular barrier is evaluated by measuring the kinetics of its appearance on the basal side. This aqueous medium, of pH 6.5, has the following composition: NaCl=8.0 g/l; KCl=0.4 g/l; CaCl2=0.19 g/l; MgCl2=0.1 g/l; MgSO4=0.1 g/l; Na2HPO4=0.09 g/l; KH2PO4=0.06 g/l; NaHCO3=0.35 g/l; glucose=1 g/l; phenol red=0.01 g/l.
(§5) The coefficient of permeability P, in cm/s, is then determined; this characterizes the rate of passage of the molecule through the membrane, namely: P=(da/dt).(1/A.Co) • where: • da/dt=variation of the amount of test compound passing through the cellular monolayer as a function of time (mol/s) • A=surface area of the monolayer (cm^2) • Co=initial concentration of the test compound (mol/l)

[3] = as above; format: in vitro ADME; conditions: human, Caco-2; introduced in Hank's medium pH 6.5, in solution in DMSO; apical to basal; read-out: Coefficient of permeability P
Protocol: as §2, §3, §4, §5

[4] = Solubility of compound A in solvents and after dilution of the solutions in water; format: physicochemical; conditions: for solubility: organic solvent or mixture
Protocol: as §1
However, when the solutions obtained with an alcohol or a glycol are diluted in an aqueous medium, the compound of formula (I) precipitates because of its strongly hydrophobic character.
Measurements were also made of the solubility of compound A in different solvents (Table 2) and after dilution in water of the solutions formed (Table 3).

[5] = Wettability by H. Mohamad's method; format: physicochemical
Excerpt: as §1
The wettability of compound A was studied in different formulations using the method of H. Mohamad et al., Labo Pharma. Problèmes techniques, 1984, 32 (346), 284-289.

[6] = ethanol solution, dilution in water 10%
[7] = polyethylene glycol 400 solution, dilution in water 30%

SMILES | Solubility, dissolution medium Acetic buffer pH 7.5 [1] [μg per ml] | Solubility, dissolution medium Phosphate buffer pH 7.5 [1] [μg per ml] | Solubility, dissolution medium Water ([1]; water) [μg per ml] | Solubility, dissolution medium Water + 10% ethanol [1] [μg per ml] | further results
Cc1c(C(=O)NN2CCCCC2)nn(-c2ccc(Cl)cc2Cl)c1-c1ccc(Cl)cc1 [Hydrochloride (solvated)] | 54 | 0.5 | 37 | 10 | –
Cc1c(C(=O)NN2CCCCC2)nn(-c2ccc(Cl)cc2Cl)c1-c1ccc(Cl)cc1 [Hydrogensulfate] | 30 | 0.9 | 13 | 38 | –
Cc1c(C(=O)NN2CCCCC2)nn(-c2ccc(Cl)cc2Cl)c1-c1ccc(Cl)cc1 [Phosphate] | 0.9 | 0.7 | 1.3 | 7.5 | –
Cc1c(C(=O)NN2CCCCC2)nn(-c2ccc(Cl)cc2Cl)c1-c1ccc(Cl)cc1 [compound A, N-Piperidino-5-(4-chlorophenyl)-1-(2,4-dichlorophenyl)-4-methylpyrazole-3-carboxamide] | – | – | – | – | Dissolution in the dissolution medium with nothing else added [2]: no dissolution takes place; Relative rate of passage (Caco-2 cells; Caco-2 monolayer, Hank's medium pH 6.5, relative to compound A in suspension in Hank's medium (=1)): 1; Permeability / ability to pass through the epithelium (in words) (Caco-2 cells; compound dissolved in DMSO): very good ability and high; Papp A→B [3]: 9.6 ×10⁻⁶ cm/s; Amount of compound A dissolved, measured [4, 6]: 1.2.10^−3 mg/ml; Amount of compound A dissolved, theoretical [4, 6]: 3.5 mg/mL; solubility ([4]; solvent Ethanol): 35 mg/mL (≈ 75.5 mM); solubility ([4]; solvent Polyethylene glycol 400): 50 mg/mL (≈ 108 mM); Amount of compound A dissolved, measured [4, 7]: 3 µg/mL; Amount of compound A dissolved, theoretical [4, 7]: 15 mg/mL; Dilution in water ([4]; solution in polyethylene glycol 1500 at 60° C.): not dilutable; Solubility of compound A ([4]; solvent Polyethylene glycol 1500 at 60° C.): 80 mg/g; Wettability in water (in words) [5]: not wettable; Solubility, dissolution medium Water + 10% ethanol ([1]; listed as Compound A (base)): 1.2 μg per ml; Solubility in water (in words) ([1]; water, irrespective of the pH): practically insoluble

Now from value to compound, other results behind:

Solubility, dissolution medium Acetic buffer pH 7.5 [1] [μg per ml] | Solubility, dissolution medium Phosphate buffer pH 7.5 [1] [μg per ml] | Solubility, dissolution medium Water ([1]; water) [μg per ml] | Solubility, dissolution medium Water + 10% ethanol [1] [μg per ml] | SMILES | further results
– | – | 39 | 48 | Cc1c(C(=O)NN2CCCCC2)nn(-c2ccc(Cl)cc2Cl)c1-c1ccc(Cl)cc1 [Methanesulfonate (solvated)] | –
2.4 | 0.2 | 3.9 | 7.3 | Cc1c(C(=O)NN2CCCCC2)nn(-c2ccc(Cl)cc2Cl)c1-c1ccc(Cl)cc1 [Paratoluenesulfonate] | –
1.2 | – | 0.7 | 0.9 | Cc1c(C(=O)NN2CCCCC2)nn(-c2ccc(Cl)cc2Cl)c1-c1ccc(Cl)cc1 [Solvated compound A] | –
